Reference: patent US20140065615A1, “The KRAS Variant and Tumor Biology” (YALE UNIVERSITY, priority 2011, published 2014)

Assays:
Type in all cases: cell-based
[1] = tested on: KRAS-variant 3′UTR reporter; assay: Luciferase reporter expression after irinotecan exposure, KRAS-variant 3′UTR reporter
Excerpt: (§1) The disclosure provides a method of predicting the response of a cancer cell to the combination of a chemotherapy and monoclonal antibody therapy, including detecting a mutation in let-7 complementary site LCS6 of human KRAS in a patient sample, wherein the mutation is a SNP comprising a uracil (U) or thymine (T) to guanine (G) transition at position 4 of LCS6, and wherein the presence of the mutation indicates a resistance to the combination. In certain embodiments of this method, the cancer cell is a colorectal cancer (CRC) cell. The cancer cell may be evaluated in vitro or ex vivo. […] The chemotherapy may be a cytotoxic agent. A non-limiting example of the cytotoxic agent is irinotecan.

[2] = tested on: wild-type 3′UTR reporter (KRAS); assay: Luciferase reporter expression after irinotecan exposure, wild-type 3′UTR reporter
Excerpt: as §1

[3] = tested on: BG1 (KRAS variant/BRCA wild-type cell line); assay: CellTiter-Blue chemosensitivity / cell viability assay, BG1; details: KRAS-variant line BG1 vs non-variant CAOV3
Procedure: (§2) The activity of drugs alone or in combination was determined by a high-through-put CellTiter-Blue cell viability assay. For these assays, 1.2×10^3 cells were plated in each well of 384-well plates using a Precision XS liquid handling station (Bio-Tek Instruments Inc., Winooski, Vt., USA) and allowed to attach overnight with incubation at 37° C., 5% CO2. Using the liquid handling station, all drugs were serially diluted 2:3 or 1:2 in media, and 5 μl of these dilutions were added to appropriate wells at indicated times. Four replicate wells were used for each drug concentration and an additional four control wells received a diluent control without drug. At the end of the incubation period with drugs, 5 μl CellTiter-Blue reagent (Promega Corp., Madison, Wis., USA) was added to each well. Cell viability was assessed by the ability of the remaining viable cells to bioreduce resazurin to resorufin. The fluorescence of resorufin (579 nm Ex/584 nm Em) was measured using a Synergy 4 microplate reader (Bio-Tek Instruments Inc.). […] IC50s were determined using a sigmoidal equilibrium model regression using XLfit version 5.2 (ID Business Solutions Ltd). The IC50 was defined as the concentration Of drug required for a 50% reduction in growth/viability. All experiments were carried out a minimum of three times.
For example, a cell line that is KRAS variant positive/BRCA wild-type (BG1), a non-variant/BRCA wild-type cell line (CAOV3) and a cell line KRAS-variant positive/BRCA1 mutant (IGR-OV1) were tested.

[4] = tested on: IGR-OV1 (KRAS-variant/BRCA1 mutant cell line); assay: CellTiter-Blue chemosensitivity / cell viability assay, IGR-OV1; details: KRAS variant and deleterious BRCA1 mutation line vs CAOV3
Procedure: as §2, with “three times. […]” for “three times.”

| reporter expression following irinotecan exposure [1] | reporter expression following irinotecan exposure [2] | Compound | resistance of BG1 compared with CAOV3 [3] | resistance of IGROV1 compared with CAOV3 [4] |
| --- | --- | --- | --- | --- |
| statistically-significant increase | no change | CCc1c2c(nc3ccc(OC(=O)N4CCC(N5CCCCC5)CC4)cc13)-c1cc3c(c(=O)n1C2)COC(=O)[C@]3(O)CC [irinotecan] | – | – |
| – | – | CC[C@@]1(O)C(=O)OCc2c1cc1n(c2=O)Cc2cc3c(CN(C)C)c(O)ccc3nc2-1 [Topotecan, topotecan] | significantly resistant | – |
| – | – | Nc1ccn([C@@H]2O[C@H](CO)[C@@H](O)C2(F)F)c(=O)n1 [Gemcitabine, gemcitabine] | significantly resistant | – |
| – | – | COc1cccc2c1C(=O)c1c(O)c3c(c(O)c1C2=O)C[C@@](O)(C(=O)CO)C[C@@H]3O[C@H]1C[C@H](N)[C@H](O)[C@H](C)O1 [Doxorubicin, doxorubicin] | significantly resistant | – |
| – | – | N.N.O=C([O-])C1(C(=O)[O-])CCC1.[Pt+2] [carboplatin] | statistically significantly resistant | not resistant |
